Assay results as given in ChEMBL document CHEMBL1201862, “PubChem BioAssay data set” (2004).
Calls of active or inactive are those of the source. No stated cut-off is given here; in the data, actives have a measured IC50 and inactives only a lower limit.

How the values were obtained:
Format in all cases: functional
[1] = molecular target: T1, Caspase-3 (Homo sapiens, UniProt P42574); test: SAR Analysis of small molecule inhibitors of Sentrin-specific proteases (SENPs) using a Caspase-3 Selectivity assay. [Related pubchem assays (depositor defined):AID2540, AID2599, AID434973, AID489001]
T1 sequence (P42574 whole entry): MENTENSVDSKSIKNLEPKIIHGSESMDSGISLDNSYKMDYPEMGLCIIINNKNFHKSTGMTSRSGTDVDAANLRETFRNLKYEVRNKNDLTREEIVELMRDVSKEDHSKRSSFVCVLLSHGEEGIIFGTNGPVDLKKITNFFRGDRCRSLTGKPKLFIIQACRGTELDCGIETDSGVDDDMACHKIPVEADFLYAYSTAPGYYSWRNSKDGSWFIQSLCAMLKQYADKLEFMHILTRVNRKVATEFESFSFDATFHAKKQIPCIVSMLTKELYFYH

[2] = molecular target: T2, Sentrin-specific protease 6 (Homo sapiens, UniProt Q9GZR1); test: SAR Analysis of small molecule inhibitors of Sentrin-specific protease 6 (SENP6) using a Luminescent assay. [Related pubchem assays (depositor defined):AID2582, AID2599]
T2 sequence (Q9GZR1 whole entry): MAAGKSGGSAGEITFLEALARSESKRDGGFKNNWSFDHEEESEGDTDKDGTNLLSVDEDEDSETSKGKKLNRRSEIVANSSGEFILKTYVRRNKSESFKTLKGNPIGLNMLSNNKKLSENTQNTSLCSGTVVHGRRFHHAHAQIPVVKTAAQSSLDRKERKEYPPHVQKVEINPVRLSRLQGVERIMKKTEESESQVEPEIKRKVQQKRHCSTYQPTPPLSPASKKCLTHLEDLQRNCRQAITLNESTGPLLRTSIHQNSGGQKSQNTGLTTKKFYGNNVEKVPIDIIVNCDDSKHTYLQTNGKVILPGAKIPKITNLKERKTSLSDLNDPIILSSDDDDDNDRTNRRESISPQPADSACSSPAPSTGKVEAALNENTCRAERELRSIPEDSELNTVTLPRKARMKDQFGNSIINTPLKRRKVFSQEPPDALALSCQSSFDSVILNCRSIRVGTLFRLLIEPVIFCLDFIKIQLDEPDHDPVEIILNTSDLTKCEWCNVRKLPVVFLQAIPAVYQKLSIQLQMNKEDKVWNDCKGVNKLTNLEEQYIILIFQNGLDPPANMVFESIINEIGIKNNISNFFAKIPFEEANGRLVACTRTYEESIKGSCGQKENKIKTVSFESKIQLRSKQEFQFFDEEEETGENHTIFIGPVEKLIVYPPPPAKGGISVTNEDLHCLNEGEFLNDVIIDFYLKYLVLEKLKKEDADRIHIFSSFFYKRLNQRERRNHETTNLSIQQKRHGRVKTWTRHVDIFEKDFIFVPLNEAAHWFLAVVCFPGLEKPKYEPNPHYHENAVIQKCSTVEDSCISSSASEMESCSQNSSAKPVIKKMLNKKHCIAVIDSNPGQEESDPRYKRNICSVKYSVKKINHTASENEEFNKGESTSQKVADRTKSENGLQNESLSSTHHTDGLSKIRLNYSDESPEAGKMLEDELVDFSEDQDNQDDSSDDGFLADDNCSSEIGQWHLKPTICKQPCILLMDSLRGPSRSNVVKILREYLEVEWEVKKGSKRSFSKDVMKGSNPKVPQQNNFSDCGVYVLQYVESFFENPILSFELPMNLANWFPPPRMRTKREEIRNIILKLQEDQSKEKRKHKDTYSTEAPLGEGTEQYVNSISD

[3] = molecular target: T3, Sentrin-specific protease 8 (Homo sapiens, UniProt Q96LD8); test: inhibition of human SENP8 cleavage activity – biochemical, luminescence, SAR follow-up (AID 504501)
T3 sequence (Q96LD8 whole entry): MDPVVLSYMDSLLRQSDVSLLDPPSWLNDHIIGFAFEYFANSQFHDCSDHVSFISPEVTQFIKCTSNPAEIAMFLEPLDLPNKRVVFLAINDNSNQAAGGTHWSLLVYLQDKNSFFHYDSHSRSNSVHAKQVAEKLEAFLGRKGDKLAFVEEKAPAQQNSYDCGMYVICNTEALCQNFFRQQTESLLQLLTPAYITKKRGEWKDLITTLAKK

[4] = molecular target: T4, Sentrin-specific protease 7 (Homo sapiens, UniProt Q9BQF6); test: inhibition of human SENP7 cleavage activity – biochemical, luminescence, SAR follow-up (AID 504497)
T4 sequence (Q9BQF6 whole entry): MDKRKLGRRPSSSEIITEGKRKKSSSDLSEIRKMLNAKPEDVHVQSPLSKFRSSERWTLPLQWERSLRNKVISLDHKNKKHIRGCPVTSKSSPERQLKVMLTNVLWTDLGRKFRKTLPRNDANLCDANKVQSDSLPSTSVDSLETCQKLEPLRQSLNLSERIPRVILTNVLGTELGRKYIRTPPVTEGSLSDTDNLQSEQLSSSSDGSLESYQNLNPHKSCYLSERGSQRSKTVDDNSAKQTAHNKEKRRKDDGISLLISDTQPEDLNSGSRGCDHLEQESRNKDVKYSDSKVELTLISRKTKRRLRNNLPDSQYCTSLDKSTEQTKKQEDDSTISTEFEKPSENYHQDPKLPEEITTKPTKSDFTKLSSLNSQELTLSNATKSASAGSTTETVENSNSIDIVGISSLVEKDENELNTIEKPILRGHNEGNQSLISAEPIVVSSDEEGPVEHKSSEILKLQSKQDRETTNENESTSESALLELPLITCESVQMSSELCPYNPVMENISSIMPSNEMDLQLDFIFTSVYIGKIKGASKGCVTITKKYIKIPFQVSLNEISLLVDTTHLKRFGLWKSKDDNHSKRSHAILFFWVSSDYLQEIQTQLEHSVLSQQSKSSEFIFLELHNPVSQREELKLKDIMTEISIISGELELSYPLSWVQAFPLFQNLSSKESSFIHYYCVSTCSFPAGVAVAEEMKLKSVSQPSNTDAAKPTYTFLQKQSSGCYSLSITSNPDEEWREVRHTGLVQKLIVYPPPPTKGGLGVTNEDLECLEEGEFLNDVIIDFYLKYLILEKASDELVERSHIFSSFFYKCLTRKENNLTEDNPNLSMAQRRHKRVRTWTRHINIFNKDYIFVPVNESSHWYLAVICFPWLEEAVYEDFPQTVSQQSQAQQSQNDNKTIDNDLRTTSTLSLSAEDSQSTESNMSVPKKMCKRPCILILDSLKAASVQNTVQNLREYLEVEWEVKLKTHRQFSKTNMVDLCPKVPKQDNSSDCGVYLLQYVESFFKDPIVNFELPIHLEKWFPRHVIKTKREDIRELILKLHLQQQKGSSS

Measured: IC50

O=C(NCCc1ccccc1)C(=O)c1c[nH]c2ccccc12
inactive: [1] > 99 µM | [2] > 99 µM | [3] > 99 µM | [4] > 99 µM
